The source of these data is patent US6987103B2, “Treatment of chronic myelogenous leukmia, resistant or intolerant to ST1571, involving homoharringtonine alone or combined with other agents” (Stragen Pharma S.A., priority 2001, dated 2006).

Series [1] deals with accelerated phase chronic myelogenous leukemia. To be noted: human, in vivo. The procedure: Description. […] The patient was resistant to interferon alpha, BCNU, HU at the time of initiation of induction with homoharringtonine (2.5 mg/m^2/day, 15 days). After white blood cell and platelet counts recovery, ten further 7-day cycles of homoharringtonine combined with cytarabine (Ara-C) 10 mg (flat dose) daily, were administered. An average of 7 days of daily Ara-C per 28-day cycle was used (see treatment plan of FIG. 1).

For series [2], the system named is chronic phase of Philadelphia positive chronic myelogenous leukemia. Put plainly: Case of patient #15 successively resistant to five drugs including STI571, treated by homoharringtonine. The format is in vivo, human.
Procedure: After a debulking treatment with hydroxyurea, a combination of interferon alpha (5 MU/m^2/day) and low-dose cytarabine was administered according to a standard regimen (subcutaneous mode of administration, 15 mg/m^2/day, daily, permanently). Then, to maintain hematologic response at the initial level, cytarabine regimen was increased to intermediate dose (200 mg/m^2/day). […] Finally, a treatment based on homoharringtonine alone was initiated. At the time of initiation of homoharringtonine treatment, WBC count was 31,000/μL: 2.5 mg/m^2/day, 14 days.
For series [3] the following is noted: in vivo; cited from earlier work.
Another series concerns LAMA84-r. The experiment in a line: MTS cell proliferation assay, median effect combination analysis with STI571. The format is cell-based, human. The conditions noted are these: LAMA84-r (STI571-resistant); STI571:HHT = 27.3:1. From the text:
(§1) The combination ratios are selected, where possible, such that both drugs are in a range relevant to their achievable serum concentrations. STI571-sensitive and resistant cells are exposed to doubling dilutions of homoharringtonine over a wide range (Table 1). […] The effects of homoharringtonine treatments are plotted and analyzed to produce computed estimations of the relative responses to either homoharringtonine alone or in combination. In this way it is possible to detect synergistic, additive or antagonistic effects. Duplicate or triplicate independent experiments are set up for each cell line/drug combination. In each case the analysis generates plots of CI (Combination Index) versus effect. […] These values are most relevant at high effect levels, as this is the desired physiological level of effect. Subsequently the CI curves can be represented as the average CI values at effects 0.5, 0.75 and 0.9 (IC50, IC75 and IC90 respectively). Cell proliferation is monitored with the CellTiter 96® AQucous One Solution Cell Proliferation Assay (Promega, UK). […] Proliferation is assessed on aliquots taken daily from days 1 to 4 in order to establish the most representative time-point. Replicate experiments are thereafter set up by plating the cells directly into 96-well plates and staining with MTS on day 3. A minimum of 95% viability as assessed by Trypan blue staining is required for the initiation of any experiment. […] Blank wells contained 100 μL RF10. All samples are plated in quadruplicate. […] On day 3, 20 μL of MTS reagent is added to each well, and the plate is re-incubated for a further 3–4 hours for stain development. At the end of this period, the plates are gently agitated and the absorbance of each well at 490 nm is recorded on an automatic microplate reader (MRX, Dynatech, Billingshurst, UK). Averaged blank values (no cells, no drug) are subtracted from sample values, and these corrected A490 values are calculated as percentages of the control cultures grown in the absence of drug. Error bars indicate the range defined in duplicate experiments, and significant differences considered as those which fell outside the region of overlap in the ranges of the means. Such an approach is supported by the non-parametric Mann-Whitney U test.

Another series has as its system LAMA84-s. The series is described as above. The format is cell-based, human. The conditions noted are these: STI571:HHT = 27.3:1.
Text: as §1

In the next series the test system is K562-r. The series is described as above. It is filed as cell-based, human. The conditions noted are these: K562-r (STI571-resistant); STI571:HHT = 27.3:1.
Text: as §1

For another series, the system named is K562-s. Described as above. The conditions noted are these: STI571:HHT = 27.3:1. The format is cell-based, human.
Text: as §1

Series [4] deals with Chronic myelogenous leukemia (CML). To be noted: in vivo; cited from earlier work.

Take `Nc1ccn([C@@H]2O[C@H](CO)[C@@H](O)[C@@H]2O)c(=O)n1` [cytarabine]: the “adverse events attributable to the agent” value in series [1] is “Mouth ulceration and alveolar hemorrhage”.

Consider `COC(=O)[C@H](CCSC)NC(=O)c1ccc(NC[C@@H](N)CS)cc1-c1ccccc1` [farnesyl transferase inhibitor], for which the peripheral blood response entry in series [2] (patient #15, after first relapse under interferon alpha) is “transient peripheral blood response”.

`COC(=O)C[C@](O)(CCCC(C)(C)O)C(=O)O[C@@H]1C(OC)=C[C@]23CCCN2CCc2cc4c(cc2[C@H]13)OCO4` [homoharringtonine]: in series [3], the “Drug concentration in serum” value is listed as 36.6 nM. For the same molecule, the “Average CI (Combination index) at FA values of 0.5, 0.75 and 0.9” value with LAMA84-r is on record as 0.6; with LAMA84-s, 1.2; with K562-r, 0.6; with K562-s, 1.1. Besides, the “adverse events attributable to the agent” value in series [1] is listed as “no non-hematologic adverse events attributable to homoharringtonine”. The WBC count in series [2] (patient #15, day 17, HHT 2.5 mg/m^2/day, 14 days, 31,000/μL at initiation) was 2,400 /μL.

Take interferon alpha: the median survival result in series [4] is recorded as “about 7 years”.
